Read-outs that look alike come from different tables or passages of the source.
What was measured:
Test in all cases: TGFα-shedding assay-based GPCR screening with chimeric Gα subunit proteins
Format in all cases: cell-based
348 GPCRs [1] = target: T1, 348 GPCRs (Homo sapiens, UniProt O00421); settings: 10µM, Favipiravir 100μM
T1 construct: expressed in transfected cells; host or cells: HEK293A
T1 sequence (O00421 1-344): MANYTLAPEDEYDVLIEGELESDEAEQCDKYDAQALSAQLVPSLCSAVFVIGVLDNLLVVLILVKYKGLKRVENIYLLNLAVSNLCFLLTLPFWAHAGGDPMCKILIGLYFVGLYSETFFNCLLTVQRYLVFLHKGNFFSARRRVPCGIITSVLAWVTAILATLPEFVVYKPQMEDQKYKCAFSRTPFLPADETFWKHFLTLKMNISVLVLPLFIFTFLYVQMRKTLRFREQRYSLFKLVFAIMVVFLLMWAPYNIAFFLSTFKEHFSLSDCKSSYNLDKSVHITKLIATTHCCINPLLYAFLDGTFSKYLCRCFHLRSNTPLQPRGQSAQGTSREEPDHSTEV

348 GPCRs [2] = target: T2, 348 GPCRs (Homo sapiens, UniProt P08588)
T2 construct: expressed in transfected cells; host or cells: HEK293A

348 GPCRs [3] = target: 348 GPCRs (Homo sapiens, UniProt P25021); settings: 10µM, Favipiravir 100μM
348 GPCRs [4] = target: T3, 348 GPCRs (Homo sapiens, UniProt P25101); settings: 10µM, Favipiravir 100μM
T3 construct: expressed in transfected cells; host or cells: HEK293A
T3 sequence (P25101 21-427): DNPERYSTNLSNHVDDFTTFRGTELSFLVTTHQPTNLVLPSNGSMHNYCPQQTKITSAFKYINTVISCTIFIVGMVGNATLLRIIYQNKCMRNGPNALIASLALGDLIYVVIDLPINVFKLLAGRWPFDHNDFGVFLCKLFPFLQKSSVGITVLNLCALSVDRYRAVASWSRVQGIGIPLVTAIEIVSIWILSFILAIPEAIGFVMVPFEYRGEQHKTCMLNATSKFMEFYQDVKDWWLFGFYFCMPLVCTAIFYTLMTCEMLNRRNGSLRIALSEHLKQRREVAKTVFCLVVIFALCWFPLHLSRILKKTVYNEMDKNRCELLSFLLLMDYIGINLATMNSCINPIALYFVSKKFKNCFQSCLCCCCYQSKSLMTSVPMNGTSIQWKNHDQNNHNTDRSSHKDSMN

348 GPCRs [5] = target: 348 GPCRs (Homo sapiens, UniProt P41145); settings: read-out: % GPCR activation compared to TPA, OPRK1 (opioid receptor, kappa 1 (KOR)); 10µM, Favipiravir 100μM
348 GPCRs [6] = target: 348 GPCRs (Homo sapiens, UniProt P46093)
348 GPCRs [7] = target: T4, 348 GPCRs (Homo sapiens, UniProt P51677); settings: 10µM, Favipiravir 100μM
T4 construct: expressed in transfected cells; host or cells: HEK293A
T4 sequence (P51677 1-355): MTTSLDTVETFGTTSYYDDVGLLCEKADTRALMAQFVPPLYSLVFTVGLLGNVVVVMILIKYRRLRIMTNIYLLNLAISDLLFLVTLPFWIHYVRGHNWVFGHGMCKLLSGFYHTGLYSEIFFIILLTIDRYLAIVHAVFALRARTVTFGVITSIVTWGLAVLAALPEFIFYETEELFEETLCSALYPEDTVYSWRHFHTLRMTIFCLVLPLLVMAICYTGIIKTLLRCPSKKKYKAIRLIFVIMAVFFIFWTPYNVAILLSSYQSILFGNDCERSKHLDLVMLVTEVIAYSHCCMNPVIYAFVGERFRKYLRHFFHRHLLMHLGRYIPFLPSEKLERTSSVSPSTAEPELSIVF

348 GPCRs [8] = target: T5, 348 GPCRs (Homo sapiens, UniProt P51686); settings: 10µM, Favipiravir 100μM
T5 construct: expressed in transfected cells; host or cells: HEK293A
T5 sequence (P51686 1-369): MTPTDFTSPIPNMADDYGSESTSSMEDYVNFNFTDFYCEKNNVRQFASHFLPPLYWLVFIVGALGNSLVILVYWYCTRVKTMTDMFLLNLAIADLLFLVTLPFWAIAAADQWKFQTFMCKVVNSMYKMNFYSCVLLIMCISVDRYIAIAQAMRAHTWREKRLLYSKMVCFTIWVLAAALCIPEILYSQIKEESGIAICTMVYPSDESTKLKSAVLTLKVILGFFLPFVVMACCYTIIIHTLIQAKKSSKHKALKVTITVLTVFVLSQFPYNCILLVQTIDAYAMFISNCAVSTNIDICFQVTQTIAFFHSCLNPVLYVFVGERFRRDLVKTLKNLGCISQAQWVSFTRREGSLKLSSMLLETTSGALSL

348 GPCRs [9] = target: T6, 348 GPCRs (Homo sapiens, UniProt Q9BXC1); settings: 10µM, Favipiravir 100μM
T6 construct: expressed in transfected cells; host or cells: HEK293A

348 GPCRs [10] = target: T7, 348 GPCRs (Homo sapiens, UniProt Q9H3N8); settings: 10µM, Favipiravir 100μM
T7 construct: expressed in transfected cells; host or cells: HEK293A

348 GPCRs [11] = target: T8, 348 GPCRs (Homo sapiens, UniProt Q9NYW7); settings: 10µM, Favipiravir 100μM
T8 construct: expressed in transfected cells; host or cells: HEK293A
T8 sequence (Q9NYW7 1-299): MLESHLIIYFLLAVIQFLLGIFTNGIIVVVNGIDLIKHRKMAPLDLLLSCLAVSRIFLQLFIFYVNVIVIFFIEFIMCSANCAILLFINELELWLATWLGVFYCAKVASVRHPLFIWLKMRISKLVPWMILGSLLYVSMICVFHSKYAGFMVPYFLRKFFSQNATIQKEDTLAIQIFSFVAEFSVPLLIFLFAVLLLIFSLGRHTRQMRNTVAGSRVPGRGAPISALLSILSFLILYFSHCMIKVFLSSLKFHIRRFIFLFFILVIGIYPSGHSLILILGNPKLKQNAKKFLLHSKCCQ

[12] = CCRL2 (chemokine (C-C motif) receptor-like 2), read-out: % GPCR activation compared to TPA
[13] = GPCR β1 (adrenoceptor beta 1), read-out: % GPCR activation compared to TPA
[14] = H2 (histamine receptor H2), read-out: % GPCR activation compared to TPA
[15] = EDNRA (endothelin receptor type A), read-out: % GPCR activation compared to TPA
[16] = GPCR GPR4 (G Protein-Coupled Receptor 4), read-out: % GPCR activation compared to TPA
[17] = CCR3 (C-C motif chemokine receptor 3), read-out: % GPCR activation compared to TPA
[18] = CCR9 (chemokine (C-C motif) receptor 9), read-out: % GPCR activation compared to TPA
[19] = GPR174 (G-Protein Coupled Receptor 174), read-out: % GPCR activation compared to TPA
[20] = H4 (histamine receptor H4), read-out: % GPCR activation compared to TPA
[21] = TAS2R1 (taste receptor, type 2, member 1), read-out: % GPCR activation compared to TPA
[22] = read-out: % GPCR activation compared to TPA, CCRL2 (chemokine (C-C motif) receptor-like 2)
[23] = read-out: % GPCR activation compared to TPA, GPCR β1 (adrenoceptor beta 1)
[24] = read-out: % GPCR activation compared to TPA, H2 (histamine receptor H2)
[25] = read-out: % GPCR activation compared to TPA, EDNRA (endothelin receptor type A)
[26] = read-out: % GPCR activation compared to TPA, GPCR GPR4 (G Protein-Coupled Receptor 4)
[27] = read-out: % GPCR activation compared to TPA, CCR3 (C-C motif chemokine receptor 3)
[28] = read-out: % GPCR activation compared to TPA, CCR9 (chemokine (C-C motif) receptor 9)
[29] = read-out: % GPCR activation compared to TPA, GPR174 (G-Protein Coupled Receptor 174)
[30] = read-out: % GPCR activation compared to TPA, H4 (histamine receptor H4)
[31] = read-out: % GPCR activation compared to TPA, TAS2R1 (taste receptor, type 2, member 1)

Sequence of 348 GPCRs (Homo sapiens, UniProt P25021) (P25021 whole entry): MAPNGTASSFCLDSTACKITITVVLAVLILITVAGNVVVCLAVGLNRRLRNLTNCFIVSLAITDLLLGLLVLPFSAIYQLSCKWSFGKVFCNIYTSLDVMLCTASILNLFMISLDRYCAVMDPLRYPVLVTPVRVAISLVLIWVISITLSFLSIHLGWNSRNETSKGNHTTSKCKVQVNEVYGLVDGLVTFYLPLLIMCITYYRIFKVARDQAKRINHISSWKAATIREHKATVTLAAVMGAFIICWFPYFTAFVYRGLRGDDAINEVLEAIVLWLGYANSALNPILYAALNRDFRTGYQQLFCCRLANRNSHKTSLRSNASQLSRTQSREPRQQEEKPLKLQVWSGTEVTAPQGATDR
Sequence of 348 GPCRs (Homo sapiens, UniProt P46093) (P46093 whole entry): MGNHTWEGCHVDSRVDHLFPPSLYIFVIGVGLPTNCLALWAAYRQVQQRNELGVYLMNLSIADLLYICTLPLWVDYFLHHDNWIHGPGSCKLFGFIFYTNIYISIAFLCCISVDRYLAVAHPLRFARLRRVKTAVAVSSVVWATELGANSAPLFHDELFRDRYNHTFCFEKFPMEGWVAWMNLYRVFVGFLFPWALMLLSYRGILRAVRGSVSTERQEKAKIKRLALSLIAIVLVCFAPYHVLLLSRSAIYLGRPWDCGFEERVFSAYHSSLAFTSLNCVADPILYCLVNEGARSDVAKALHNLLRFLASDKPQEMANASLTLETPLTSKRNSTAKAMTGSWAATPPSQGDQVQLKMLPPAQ
T6 sequence (Q9BXC1 whole entry): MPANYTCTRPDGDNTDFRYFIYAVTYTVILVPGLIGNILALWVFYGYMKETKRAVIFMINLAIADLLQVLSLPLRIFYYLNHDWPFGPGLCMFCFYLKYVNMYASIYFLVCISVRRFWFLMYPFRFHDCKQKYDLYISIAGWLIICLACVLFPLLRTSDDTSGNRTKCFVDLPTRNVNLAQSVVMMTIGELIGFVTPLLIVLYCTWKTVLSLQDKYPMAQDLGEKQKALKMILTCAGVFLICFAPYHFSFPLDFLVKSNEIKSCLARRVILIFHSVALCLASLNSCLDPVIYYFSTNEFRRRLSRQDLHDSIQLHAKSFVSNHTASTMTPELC
T2 sequence (P08588 whole entry): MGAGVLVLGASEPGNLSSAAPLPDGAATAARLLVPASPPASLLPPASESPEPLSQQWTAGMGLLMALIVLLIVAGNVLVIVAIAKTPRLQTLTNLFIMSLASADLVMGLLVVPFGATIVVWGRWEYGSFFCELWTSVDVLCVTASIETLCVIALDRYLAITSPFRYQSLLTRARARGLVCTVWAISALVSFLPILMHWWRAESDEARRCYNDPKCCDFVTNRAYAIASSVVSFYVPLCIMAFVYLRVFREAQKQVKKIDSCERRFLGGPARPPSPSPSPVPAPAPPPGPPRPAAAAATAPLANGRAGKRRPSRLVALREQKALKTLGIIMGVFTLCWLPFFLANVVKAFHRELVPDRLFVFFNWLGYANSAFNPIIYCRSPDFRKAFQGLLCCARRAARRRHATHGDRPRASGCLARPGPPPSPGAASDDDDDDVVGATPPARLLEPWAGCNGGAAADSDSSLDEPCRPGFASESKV
Sequence of 348 GPCRs (Homo sapiens, UniProt P41145) (P41145 whole entry): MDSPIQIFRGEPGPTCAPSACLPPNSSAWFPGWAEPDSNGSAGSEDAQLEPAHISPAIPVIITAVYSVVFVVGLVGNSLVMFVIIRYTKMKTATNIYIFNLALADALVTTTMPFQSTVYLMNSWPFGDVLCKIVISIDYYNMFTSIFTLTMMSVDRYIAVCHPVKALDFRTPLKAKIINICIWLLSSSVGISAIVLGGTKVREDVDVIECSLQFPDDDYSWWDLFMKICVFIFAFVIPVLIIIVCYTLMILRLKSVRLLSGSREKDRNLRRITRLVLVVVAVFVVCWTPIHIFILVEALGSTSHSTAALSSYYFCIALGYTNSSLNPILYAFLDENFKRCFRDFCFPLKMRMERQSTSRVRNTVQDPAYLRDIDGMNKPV

Row | Compound | activation at 10 µM (348 GPCRs [1]; [12]) [%] | activation at 10 µM (348 GPCRs [2]; [13]) [%] | activation at 10 µM (348 GPCRs [3]; [14]) [%] | activation at 100 µM (348 GPCRs [4]; [15]) [%] | activation at 100 µM (348 GPCRs [5]) [%] | activation at 10 µM (348 GPCRs [6]; [16]) [%] | activation at 100 µM (348 GPCRs [7]; [17]) [%] | activation at 10 µM (348 GPCRs [8]; [18]) [%] | activation at 100 µM (348 GPCRs [9]; [19]) [%] | activation at 100 µM (348 GPCRs [10]; [20]) [%] | activation at 100 µM (348 GPCRs [11]; [21]) [%] | activation at 10 µM (348 GPCRs [1]; [22]) [%] | activation at 10 µM (348 GPCRs [2]; [23]) [%] | activation at 10 µM (348 GPCRs [3]; [24]) [%] | activation at 100 µM (348 GPCRs [4]; [25]) [%] | activation at 10 µM (348 GPCRs [6]; [26]) [%] | activation at 100 µM (348 GPCRs [7]; [27]) [%] | activation at 10 µM (348 GPCRs [8]; [28]) [%] | activation at 100 µM (348 GPCRs [9]; [29]) [%] | activation at 100 µM (348 GPCRs [10]; [30]) [%] | also measured
1 | N#C[C@@]1(c2ccc3c(N)ncnn23)O[C@H](CO)[C@@H](O)[C@H]1O [GS441524] | 2.25 | -0.381 | -1.14 | 2.17 | -1.93 | -0.661 | 3.06 | 2.4 | -2.64 | 5.54 | -0.408 | – | – | – | – | – | – | – | – | – | –
2 | CCC(CC)COC(=O)[C@H](C)N[P@](=O)(OC[C@H]1O[C@@](C#N)(c2ccc3c(N)ncnn23)[C@H](O)[C@@H]1O)Oc1ccccc1 [remdesivir] | – | – | – | – | 6.17 | – | – | – | – | – | – | 0.0536 | 1.07 | 2.05 | -0.597 | -1.37 | 7.61 | -0.902 | 1.12 | 7.16 | activation at 100 µM (348 GPCRs [11]; [31]): 0.931%
3 | CC(C)OC(=O)[C@H](C)N[P@](=O)(OC[C@H]1O[C@@H](n2ccc(=O)[nH]c2=O)[C@](C)(F)[C@@H]1O)Oc1ccccc1 [sofosbuvir] | – | – | – | – | -1.11 | – | – | – | – | – | – | 1.66 | 1.27 | -0.476 | 2.91 | 1.94 | -1.65 | -0.977 | -1.73 | -3.28 | activation at 100 µM (348 GPCRs [11]; [31]): -0.974%

Second part, led by results:

Row | activation at 10 µM (348 GPCRs [1]; [12]) [%] | activation at 10 µM (348 GPCRs [2]; [13]) [%] | activation at 10 µM (348 GPCRs [3]; [14]) [%] | activation at 100 µM (348 GPCRs [4]; [15]) [%] | activation at 100 µM (348 GPCRs [5]) [%] | activation at 10 µM (348 GPCRs [6]; [16]) [%] | activation at 100 µM (348 GPCRs [7]; [17]) [%] | activation at 10 µM (348 GPCRs [8]; [18]) [%] | activation at 100 µM (348 GPCRs [9]; [19]) [%] | activation at 100 µM (348 GPCRs [10]; [20]) [%] | activation at 100 µM (348 GPCRs [11]; [21]) [%] | Compound | activation at 10 µM (348 GPCRs [1]; [22]) [%] | activation at 10 µM (348 GPCRs [2]; [23]) [%] | activation at 10 µM (348 GPCRs [3]; [24]) [%] | activation at 100 µM (348 GPCRs [4]; [25]) [%] | activation at 10 µM (348 GPCRs [6]; [26]) [%] | activation at 100 µM (348 GPCRs [7]; [27]) [%] | activation at 10 µM (348 GPCRs [8]; [28]) [%] | activation at 100 µM (348 GPCRs [9]; [29]) [%] | activation at 100 µM (348 GPCRs [10]; [30]) [%] | also measured
4 | 0.0461 | – | 0.663 | 0.818 | -1.65 | – | 2.7 | 2.47 | -2.2 | 1.77 | -0.27 | NC(=O)c1nc(F)cnc1O [favipiravir, 6-fluoro-3-hydroxy-2-pyrazinecarboxamide] | – | – | – | – | – | – | – | – | – | activation at 100 µM (348 GPCRs [2]; GPCR β1 (adrenoceptor beta 1), 100μM, read-out: % GPCR activation compared to TPA): -1.4%; activation at 100 µM (348 GPCRs [6]; GPCR GPR4 (G Protein-Coupled Receptor 4), 100μM, read-out: % GPCR activation compared to TPA): -3.16%
5 | -0.522 | 0.738 | -0.335 | 0.536 | -1.39 | -3.97 | -0.741 | -1.34 | -2 | -3.71 | -0.93 | CC(C)C(=O)OC[C@H]1O[C@@H](n2ccc(NO)nc2=O)[C@H](O)[C@@H]1O [molnupiravir] | – | – | – | – | – | – | – | – | – | –

From PMC10175918 (Communications Biology, 2023)
